Reference: the NIST ThermoML archive (doi:10.1007/s10765-015-1981-5)

Experiment: xn = mol fraction of the nth substance listed
Conditions: Gas, Loschmidt cell combine with holographic interferometry

[Kr] [krypton] + [He]
binary diffusion coefficient [m2/s], x1 = 0.5
Conditions	293.15 K	313.15 K	333.15 K	353.15 K
100 kPa	6.19e-05	7.04e-05	–	–
200 kPa	3.12e-05	3.48e-05	3.84e-05	4.25e-05
500 kPa	1.25e-05	1.34e-05	1.55e-05	1.71e-05
1000 kPa	6.18e-06	6.94e-06	7.7e-06	8.54e-06

[Xe] [xenon] + [Ar]
binary diffusion coefficient [m2/s], x2 = 0.5
Conditions	100 kPa	200 kPa	500 kPa	1000 kPa
293.15 K	3.12e-05	1.56e-05	6.29e-06	3.12e-06
313.15 K	3.5e-05	1.75e-05	7.02e-06	3.48e-06
333.15 K	3.88e-05	1.94e-05	7.76e-06	3.88e-06

[N-]=[N+]=O [nitrous oxide] + N#N
binary diffusion coefficient [m2/s], x2 = 0.5
Conditions	293.15 K	313.15 K	333.15 K	353.15 K
100 kPa	1.53e-05	1.76e-05	–	–
200 kPa	7.9e-06	8.98e-06	–	–
500 kPa	3.14e-06	3.55e-06	4.28e-06	–
1000 kPa	1.56e-06	1.77e-06	1.98e-06	2.24e-06

[He] [helium] + CCC
binary diffusion coefficient [m2/s], x2 = 0.5
Conditions	293.15 K	313.15 K	333.15 K
100 kPa	3.9e-05	4.36e-05	–
200 kPa	1.95e-05	2.18e-05	2.4e-05

[He] [helium] + N
binary diffusion coefficient [m2/s], x1 = 0.5
Conditions	293.15 K	313.15 K	333.15 K	353.15 K
100 kPa	7.36e-05	–	–	–
200 kPa	3.7e-05	4.1e-05	–	–
500 kPa	1.46e-05	1.65e-05	–	–
800 kPa	8.96e-06	1.02e-05	1.13e-05	1.26e-05
